How the values were obtained:
Assay type in all cases: toxicity, cell-based
Fibroblast = assay: Incucyte cell viability with human fibroblast; conditions: 10 µM, compound concentration 10 uM
U2OS = assay: Incucyte cell viability with U2OS; conditions: human, 10 µM, compound concentration 10 uM
HEK-293T = assay: Incucyte cell viability with HEK293T; conditions: human, 10 µM, compound concentration 10 uM
Also: unitless GR value; below 1 slowed growth and below 0 cell loss.

Compound	Growth Rate (Fibroblast; 0 h, replicate number 2)	Growth Rate (Fibroblast; 6 h, replicate number 1)	Growth Rate (Fibroblast; 12 h, replicate number 1)	Growth Rate (Fibroblast; 12 h, replicate number 2)	Growth Rate (Fibroblast; 18 h, replicate number 1)	Growth Rate (Fibroblast; 18 h, replicate number 2)	Growth Rate (Fibroblast; 24 h, replicate number 1)	Growth Rate (Fibroblast; 24 h, replicate number 2)	Growth Rate (U2OS; 0 h, replicate number 2)	Growth Rate (U2OS; 6 h, replicate number 1)	Growth Rate (U2OS; 6 h, replicate number 2)	Growth Rate (U2OS; 12 h, replicate number 1)	Growth Rate (U2OS; 12 h, replicate number 2)	Growth Rate (U2OS; 18 h, replicate number 1)	Growth Rate (U2OS; 18 h, replicate number 2)	Growth Rate (U2OS; 24 h, replicate number 2)	Growth Rate (HEK-293T; 6 h, replicate number 1)	Growth Rate (HEK-293T; 12 h, replicate number 1)	Growth Rate (HEK-293T; 18 h, replicate number 1)	Growth Rate (U2OS; 24 h, replicate number 1)	also measured
O=C(NCc1ccc(F)cc1)C1CCN(S(=O)(=O)c2cc(Cl)cc(Cl)c2)CC1	0.31	0.84	0.58	0.3	0.84	0.46	0.76	0.67	0.76	0.81	0.72	0.86	0.98	0.9	0.98	0.98	0.66	0.95	0.7		Growth Rate (HEK-293T; 0 h, replicate number 2): -0.42; Growth Rate (HEK-293T; 24 h, replicate number 1): 0.78
CC(C)CC(=O)Nc1cncc(-c2ccc3[nH]nc(-c4nc5c(-c6cccc(F)c6)cncc5[nH]4)c3c2)c1 [LORECIVIVINT]	-0.25	-1		-0.68		-0.37		-0.13	-0.42	-0.98	-0.82	-0.71	-0.62	-0.52	-0.47	-0.42	-0.99	-0.89	-0.67	-0.44	Growth Rate (Fibroblast; 0 h, replicate number 1): -0.18; Growth Rate (Fibroblast; 6 h, replicate number 2): -0.98; Growth Rate (HEK-293T; 6 h, replicate number 2): -0.98; Growth Rate (HEK-293T; 12 h, replicate number 2): -0.78; Growth Rate (HEK-293T; 18 h, replicate number 2): -0.58; Growth Rate (HEK-293T; 24 h, replicate number 1): -0.41; Growth Rate (HEK-293T; 24 h, replicate number 2): -0.44
CC(C)c1cnn2c(NCc3ccccc3)cc(NCCCCCCN)nc12.Cl	-0.08	0.36	0.36	0.65	0.9	0.69	1	0.87	0.64		0.69	0.99	0.78	0.92	0.76	0.71	-0.19	0.25	0.64	0.87	Growth Rate (Fibroblast; 6 h, replicate number 2): 0.27; Growth Rate (HEK-293T; 6 h, replicate number 2): -0.03; Growth Rate (HEK-293T; 12 h, replicate number 2): 0.46; Growth Rate (HEK-293T; 18 h, replicate number 2): 0.6; Growth Rate (HEK-293T; 24 h, replicate number 1): 0.65; Growth Rate (HEK-293T; 24 h, replicate number 2): 0.66
CN[C@@H](C)C(=O)N[C@H](C(=O)N1CCC[C@H]1C(=O)N[C@H]1c2ccccc2C[C@H]1OCC#CC#CCO[C@@H]1Cc2ccccc2[C@@H]1NC(=O)[C@@H]1CCCN1C(=O)[C@@H](NC(=O)[C@H](C)NC)C1CCCCC1)C1CCCCC1			0.87		0.75	0.57	0.63	0.43		0.89	0.83		0.86	0.87	0.86		0.13	-0.41	-0.17	0.89	Growth Rate (U2OS; 0 h, replicate number 1): 0.76; Growth Rate (HEK-293T; 0 h, replicate number 2): -0.94; Growth Rate (HEK-293T; 6 h, replicate number 2): 0.46; Growth Rate (HEK-293T; 12 h, replicate number 2): -0.22; Growth Rate (HEK-293T; 18 h, replicate number 2): 0.01; Growth Rate (HEK-293T; 24 h, replicate number 1): -0.12; Growth Rate (HEK-293T; 24 h, replicate number 2): 0.02
Cn1cc(C(=O)O)c2ccc(N3CCC(OCc4c(-c5c(Cl)cccc5Cl)noc4C4CC4)CC3)cc21 [TERN-101]	0.89	-0.66	0.61		0.62	0.97	0.37	0.87		0.86	-0.83	0.74	0.96	0.87			0.97			0.91	Growth Rate (Fibroblast; 6 h, replicate number 2): 0.73; Growth Rate (U2OS; 0 h, replicate number 1): -0.23
O=C(N[C@H]1CN2CCC1CC2)c1ccc(Cl)cc1 [PNU-282987]		-0.45		0.79		0.85		0.81	-0.61		0.78	0.84		0.75	0.8	0.86				0.94	Growth Rate (Fibroblast; 6 h, replicate number 2): -0.01; Growth Rate (HEK-293T; 6 h, replicate number 2): 0.88; Growth Rate (HEK-293T; 12 h, replicate number 2): 0.94; Growth Rate (HEK-293T; 24 h, replicate number 2): 1

Reference: ChEMBL document CHEMBL5303304, “EUbOPEN Chemogenomics Library - IncuCyte” (2023)
